According to patent publication US20060188501A1, “Diagnostic and therapeutic agents for rheumatoid arthritis” (Kyowa Hakko Kogyo Co., Ltd., priority 2000, published 2006):

Tested on: Synoviocytes derived from a rheumatoid arthritis patient
Assay: Growth of synoviocytes measured by MTT assay
Type: cell-based, human
Details: genistein 1.5, 3, 6, 12.5 and 25 μg/ml, 7 days culture, FIG. 2
Description: That is, synoviocytes obtained from a rheumatoid arthritis patient by surgery were minced, followed by enzyme treatment in RPMI1640 medium containing collagenase (4 mg/ml) at 37° C. for 4 hours to loosen the cells. The obtained cells were cultured in a growth medium (RPMI1640 containing 10% fetal calf serum) in a humidified CO2 incubator (5% CO2), with replacement of the growth medium at intervals of 3 to 4 days. When the cells grew to be subconfluent, the cells were subcultured at the ratio of 1:2 to 1:4 (that is, the cells were collected, transferred into other culture flasks in 1/2 to 1/4 portions and cultured in a fresh growth medium). Subculturing was repeated for 7 to 15 passages and the resulting cells were used in the following experiments.
The growth of synoviocytes was measured by the assay using MTT [3,(4,5-dimethylthiazol-2-yl)2,5-diphenyl-tetrazolium bromide]
Synoviocytes derived from a rheumatoid arthritis patient which were prepared in the same manner as in Example 1 were seeded on a 96-well microplate in an amount of 5×10^3 cells/well and precultured in the growth medium at 37° C. overnight. […] Then, 100 μl of dimethyl sulfoxide was added to dissolve the fomazan complex and the absorbance at the wavelength of 590 nm was measured with 96-well multiscanner Immno-Mini (Japan Inter Med) as the degree of cell growth. […]

## O=c1c(-c2ccc(O)cc2)coc2cc(O)cc(O)c12 [genistein]
  growth of synoviocytes (absorbance at 590 nm, MTT): inhibited in a manner dependent on the genistein concentration
